Measured values reported in publication PMC11809415 (The Journal of Cell Biology, 2025).
Entries after “also recorded” stand apart in the source; their conditions may differ.

How the values were obtained:
[1] = test system: actin (ADP-ribosylation by TcART, Photorhabdus luminescens); test: ADP-ribosylation of actin by TcART in presence of actin-binding peptides; type: biochemical, rabbit skeletal muscle α-actin; conditions: for ADP-ribosylation level: relative to no peptide = 1, […] actin, 314 pM TcART, 10 min 37°C; for effect on TcART modification of F-actin (in words): peptides up to 100 µM
Protocol: (§1) Rabbit skeletal muscle α-actin was purified from muscle acetone powder (Pel-Freez Biologicals) as described in [Merino et al. (2018)] and stored in 50 μl aliquots at −70°C.
TcART, the ADP-ribosyltransferase from P. luminescens Tc toxin, was purified from E. coli BL21-CodonPlus(DE3)-RIPL harboring the plasmid pB656 as described previously ([Belyy et al., 2022]).
A total of 8-μl mixtures of 2 μg (4.8 μM final concentration) actin and actin-binding peptides at specified concentrations were preincubated for 5 min at room temperature in the buffer containing 1 mM NAD, 20 mM Tris pH 8, 150 mM NaCl, and 1 mM MgCl2. The ADP ribosylation reaction was initiated by the addition of 0.2 ng (314 pM) of TcART to the mixture. After 10 min of incubation at 37°C, the reaction was stopped by adding Laemmli sample buffer and heating the sample at 95°C for 5 min. The components of the mixture were separated by SDS-PAGE, blotted onto a polyvinylidene difluoride (PVDF) membrane using a Trans-Blot Turbo Transfer System (Bio-Rad), and visualized using a combination of the His-tagged ADP-ribose binding protein at the concentration of 0.01 mg/ml and HisProbe-HRP conjugate. The level of actin ADP-ribosylation was quantified by densitometry using ImageJ.

[2] = test system: U-2 OS cells (phalloidin-stained actin); test: Colocalization with phalloidin in U-2 OS cells (Pearson correlation); type: cell-based, human; conditions: EGFP fusions
F-actin [3] = test: High-speed cosedimentation with F-actin (120,000 g), SDS-PAGE densitometry; type: binding, rabbit skeletal muscle α-actin; conditions: for Fraction bound: 2 μM mCherry fusion
Protocol: as §1
A single colony was inoculated into 200 ml of LB media and grown at 37°C. At OD600 0.6–1.0, protein expression was induced by the addition of IPTG to a final concentration of 0.02 mM. After 16 h of expression at 22°C, the cells were harvested by centrifugation, resuspended in TBS (20 mM Tris pH 8 and 150 mM NaCl), and lysed by sonication. The soluble fraction was applied on TBS-equilibrated Protino Ni-IDA resin (Macherey-Nagel), washed, eluted with TBS supplemented with 250 mM imidazole, dialyzed against TBS, and stored at −20°C.
Freshly thawed mammalian α-actin was spun down at 120,000 g for 20 min at 4°C using a TLA-120.1 rotor, and the supernatant containing G-actin was collected. The protein was then polymerized by incubation in F buffer (120 mM KCl, 20 mM Tris pH 8, 2 mM MgCl2, 1 mM DTT, and 1 mM ATP) for 2 h on ice. Cosedimentation assays were performed in 20 μl volumes by first incubating F-actin with F-tractinopt-mCherry fusions for 5 min at room temperature and then centrifuging at 120,000 g using the TLA-120.1 rotor for 20 min at 4°C. After centrifugation, aliquots of the supernatant and resuspended pellet fractions were separated on SDS-polyacrylamide gels with 2,2,2-trichloroethanol ([Ladner-Keay et al., 2018]), visualized under ultraviolet light, and analyzed by densitometry using ImageJ (RRID:SCR_003070). The Kd values were calculated using GraphPad Prism software (RRID:SCR_002798).

U-2 OS cells [4] = test: FRAP recovery half time in U-2 OS cells; type: cell-based, human; conditions: EGFP fusions
U-2 OS cells [5] = test: Nuclear signal enrichment in U-2 OS cells; type: cell-based, human; conditions: EGFP fusions
F-actin [6] = test: Actin bundling assay using low-speed centrifugation (10,000 g); type: biochemical, rabbit skeletal muscle α-actin; conditions: for F-actin in the pellet: 10 μM actin filaments, 5 min RT, 10,000 g
Protocol: as §1
8 μl of actin filaments at 10 μM were mixed with peptides at the specified concentration, incubated for 5 min at room temperature, and spun down at 10,000 g for 10 min at 4°C. Aliquots of the supernatant and resuspended pellet fractions were separated on SDS-polyacrylamide gels with 2,2,2-trichloroethanol ([Ladner-Keay et al., 2018]) and visualized with ultraviolet light.

[7] = test system: U-2 OS cells (actin fibers); test: Signal-to-noise ratio (fibers/cytosol) in U-2 OS cells; type: cell-based, human; conditions: EGFP fusions, compared with WT F-tractin

APRRSVGELRLLAEARAASAA [F29A F-tractinopt, mCherry fusion in cosedimentation, EGFP fusion in cells]
ADP-ribosylation level ([1]; peptide 100 µM, Repeat 1): 0,715886
ADP-ribosylation level ([1]; peptide 100 µM, Repeat 2): 1,144903
ADP-ribosylation level ([1]; peptide 100 µM, Repeat 3): 1,162086
effect on TcART modification of F-actin (in words) [1]: did not interfere with TcART modification of F-actin
binding to actin in cells (in words) [2]: completely failed to bind to actin in cells
Kd (F-actin [3]; 2 μM probe as mCherry fusion, F-actin titrated, 5 min at room temperature, three independent experiments): > 100 µM
Fraction bound (F-actin [3]; F-actin 2 µM, Repeat 1): 0,02963
Fraction bound (F-actin [3]; F-actin 2 µM, Repeat 2): 0,031317
Fraction bound (F-actin [3]; F-actin 2 µM, Repeat 3): 0,036
Fraction bound (F-actin [3]; F-actin 5 µM, Repeat 1): 0,020561
Fraction bound (F-actin [3]; F-actin 5 µM, Repeat 2): 0,008869
Fraction bound (F-actin [3]; F-actin 5 µM, Repeat 3): 0,001393
Fraction bound (F-actin [3]; F-actin 10 µM, Repeat 1): 0,051546
Fraction bound (F-actin [3]; F-actin 10 µM, Repeat 2): 0,016783
Fraction bound (F-actin [3]; F-actin 10 µM, Repeat 3): 0,023887
Fraction bound (F-actin [3]; F-actin 20 µM, Repeat 1): 0,035971
Fraction bound (F-actin [3]; F-actin 20 µM, Repeat 2): 0,051087
Fraction bound (F-actin [3]; F-actin 20 µM, Repeat 3): 0,050633
Fraction bound (F-actin [3]; F-actin 40 µM, Repeat 1): 0,071269
Fraction bound (F-actin [3]; F-actin 40 µM, Repeat 2): 0,046373
Fraction bound (F-actin [3]; F-actin 40 µM, Repeat 3): 0,065217
affinity for F-actin (in words) (F-actin [3]; cosedimentation, mCherry fusions of F-tractinopt variants): barely detectable in the pellet at the highest concentration of F-actin used

APRRSVGELRLLFEARAASAA [F-tractinopt, optimized F-tractin peptide; mCherry fusion in cosedimentation, EGFP fusion in cells]
exchange / recovery in FRAP (in words) (U-2 OS cells [4]): exchanged faster than WT F-tractin; also recorded: FRAP recovery rates
ADP-ribosylation level ([1]; peptide 1 µM, Repeat 1): 1,245716
ADP-ribosylation level ([1]; peptide 1 µM, Repeat 2): 0,95033
ADP-ribosylation level ([1]; peptide 1 µM, Repeat 3): 1,419998
ADP-ribosylation level ([1]; peptide 3 µM, Repeat 1): 1,210256
ADP-ribosylation level ([1]; peptide 3 µM, Repeat 2): 1,296322
ADP-ribosylation level ([1]; peptide 3 µM, Repeat 3): 1,29383
ADP-ribosylation level ([1]; peptide 10 µM, Repeat 1): 0,846657
ADP-ribosylation level ([1]; peptide 10 µM, Repeat 2): 0,728925
ADP-ribosylation level ([1]; peptide 10 µM, Repeat 3): 1,078508
ADP-ribosylation level ([1]; peptide 30 µM, Repeat 1): 0,320904
ADP-ribosylation level ([1]; peptide 30 µM, Repeat 2): 0,220558
ADP-ribosylation level ([1]; peptide 30 µM, Repeat 3): 0,140877
ADP-ribosylation level ([1]; peptide 100 µM, Repeat 1): 0,032604
ADP-ribosylation level ([1]; peptide 100 µM, Repeat 2): 0,100767
ADP-ribosylation level ([1]; peptide 100 µM, Repeat 3): 0,002262
effect on TcART modification of F-actin (in words) [1]: inhibited TcART activity in a similar dose-dependent manner
nuclear enrichment (in words) (U-2 OS cells [5]): slightly higher accumulation of F-tractinopt in the nucleus
actin bundling (in words) (F-actin [6]; in vitro, up to 100 µM, low-speed centrifugation and cryo-EM): minimal actin bundling
F-actin in the pellet (F-actin [6]; peptide 1 µM, Repeat 1): 0,098435
F-actin in the pellet (F-actin [6]; peptide 1 µM, Repeat 2): 0,057915
F-actin in the pellet (F-actin [6]; peptide 1 µM, Repeat 3): 0,103265
F-actin in the pellet (F-actin [6]; peptide 100 µM, Repeat 1): 0,099007
F-actin in the pellet (F-actin [6]; peptide 100 µM, Repeat 2): 0,095989
F-actin in the pellet (F-actin [6]; peptide 100 µM, Repeat 3): 0,158954
F-actin in the pellet (F-actin [6]; peptide 1000 µM, Repeat 1): 0,238373
F-actin in the pellet (F-actin [6]; peptide 1000 µM, Repeat 2): 0,117922
F-actin in the pellet (F-actin [6]; peptide 1000 µM, Repeat 3): 0,212762
Fraction bound (F-actin [3]; F-actin 2 µM, Repeat 1): 0,113982
Fraction bound (F-actin [3]; F-actin 2 µM, Repeat 2): 0,125633
Fraction bound (F-actin [3]; F-actin 2 µM, Repeat 3): 0,150215
Fraction bound (F-actin [3]; F-actin 5 µM, Repeat 1): 0,211009
Fraction bound (F-actin [3]; F-actin 5 µM, Repeat 2): 0,27957
Fraction bound (F-actin [3]; F-actin 5 µM, Repeat 3): 0,318841
Fraction bound (F-actin [3]; F-actin 10 µM, Repeat 1): 0,480176
Fraction bound (F-actin [3]; F-actin 10 µM, Repeat 2): 0,433657
Fraction bound (F-actin [3]; F-actin 10 µM, Repeat 3): 0,418605
Fraction bound (F-actin [3]; F-actin 20 µM, Repeat 1): 0,569748
Fraction bound (F-actin [3]; F-actin 20 µM, Repeat 2): 0,578018
Fraction bound (F-actin [3]; F-actin 20 µM, Repeat 3): 0,523474
Fraction bound (F-actin [3]; F-actin 40 µM, Repeat 1): 0,557282
Fraction bound (F-actin [3]; F-actin 40 µM, Repeat 2): 0,621935
Fraction bound (F-actin [3]; F-actin 40 µM, Repeat 3): 0,643478
signal-to-noise ratio between actin fibers and cytosol (in words) [7]: behave very similarly (no
